Results from publication PMC7822874, “Chemoprotective antimalarials identified through quantitative high-throughput screening of Plasmodium blood and liver stage parasites” (Scientific Reports, 2021).
Read-outs that look alike come from different tables or passages of the source.

Experiments:
[1] = system: P. falciparum Dd2 Cytb G131S; test: SYBR Green ABS proliferation assay, NCGC00374598 selected clone C11; type: cell-based, Plasmodium falciparum; settings: Plasmodium falciparum
Protocol: (§1) As resistance selection studies implicated the parasite cytochrome bc1 complex in mediating reduced parasite susceptibility to both NCGC00473217 and NCGC00374598, we leveraged these drug-selected parasites to test for altered drug response to a panel of antimalarial compounds.
(§2) The P. falciparum parasite Dd2 line was cultured in vitro using standard conditions. […] Tissue culture flasks and assay plates were incubated at 37 °C under a gas mixture of 5% CO2, 5% O2 and 90% N2. […] Significant differences were assessed using two-sided Student’s t-tests. All HTS assays were stopped and read at 72 h. Percent response values represent relative growth as judged by SYBR Green-I fluorescence intensity values normalized to controls.
(§3) Fresh uninfected RBCs (0.5% hematocrit) were added on day 7 and media was changed every other day. […] Resistant parasites were maintained under drug media at a volume of 50 mL until a high parasitemia (> 5%) was achieved. Aliquots of the bulk resistant cultures were frozen in cryovials before cloning by limiting dilution in 96-well plates (seeded at 0.25 or 0.5 parasites/well)[70]. After 3 weeks of cloning, we screened for positive wells by flow cytometry with SYBR Green-stained cells. […] Parasites were harvested by saponin lysis at the trophozoite stage and genomic DNA was extracted using the QIAamp DNA Blood Midi Kit (Qiagen, Germantown, MD)[71].

[2] = system: P. falciparum Dd2 Cytb V259L; test: SYBR Green ABS proliferation assay, NCGC00473217 selected clone F06; type: cell-based, Plasmodium falciparum; settings: Plasmodium falciparum
Protocol: as §1, §2, §3

[3] = system: P. falciparum Dd2 Cytb A122D; test: SYBR Green ABS proliferation assay, NCGC00473217 selected clone F12; type: cell-based, Plasmodium falciparum; settings: Plasmodium falciparum
Protocol: as §1, §2, §3

[4] = system: P. falciparum Dd2 Cytb F123L; test: SYBR Green ABS proliferation assay, NCGC00473217 selected clone G08; type: cell-based, Plasmodium falciparum; parameters: log AC50, mean: unit: log10(M); settings: for AC50: Plasmodium falciparum; for log AC50, mean: cytochrome b mutant line
Protocol: as §1, §2, §3

[5] = system: P. falciparum Dd2 (clone B2) asexual blood stage parasites; test: P. falciparum Dd2 asexual blood stage SYBR Green-I 72 h proliferation assay (qHTS); type: cell-based, Plasmodium falciparum; settings: Plasmodium falciparum, DD2, Dd2 parental; Hill fit, averaged from three independent replicates; top concentration 29 µM; read-out: Average AC50 (Log[M]), Dd2 (converted)
[6] = system: P. berghei-ANKA-GFP-LucCON liver stage parasites in HepG2-A16-CD81EGFP cells; test: P. berghei liver stage Pb-Luc assay, Method 1 (UCSD, 1536-well); type: cell-based, Plasmodium berghei; settings: Method 1; for AC50: Plasmodium berghei
[7] = system: luciferase-expressing P. berghei liver stage parasites in HepG2 cells; test: Inhibition of liver-stage development assay (ILSDA), Method 2 (WRAIR, 96-well); type: cell-based, Plasmodium berghei; settings: P. berghei liver stage, Method 2, dose response
[8] = system: Plasmodium falciparum Dd2 asexual blood stage parasites; test: microbe, parasite or virus in culture; parameters: species or system Plasmodium falciparum Dd2 in human erythrocytes; single determination (one 11-point concentration-response curve); settings: Plasmodium falciparum, DD2, Erythrocyte, 72 h; read-out: AC50
[9] = DD2, cytochrome b mutant line, second value triple, c6, […], read-out: log AC50, mean (converted)
[10] = DD2, cytochrome b mutant line, third value triple, c9, […], read-out: log AC50, mean (converted)
[11] = DD2, cytochrome b mutant line, fourth value triple, c12, […], read-out: log AC50, mean (converted)
[12] = DD2, cytochrome b mutant line, fifth value triple, c15, […], read-out: log AC50, mean (converted)
[13] = DD2, […], averaged from three independent replicates, top concentration 29 µM, read-out: Average AC50 (Log[M]), NCGC00374598 clone C11 (Cytb G131S) (converted)
[14] = DD2, […], averaged from three independent replicates, top concentration 29 µM, read-out: Average AC50 (Log[M]), NCGC00473217 clone G08 (Cytb F123L) (converted)
[15] = DD2, […], averaged from three independent replicates, top concentration 29 µM, read-out: Average AC50 (Log[M]), NCGC00473217 clone F06 (Cytb V259L) (converted)
[16] = DD2, […], averaged from three independent replicates, top concentration 29 µM, read-out: Average AC50 (Log[M]), NCGC00473217 clone F12 (Cytb A122D) (converted)

| Compound | AC50 [4, 12] [M] | AC50 [5] [M] | AC50 [1, 13] [M] | AC50 [4, 14] [M] | AC50 [2, 15] [M] | AC50 [3, 16] [M] | also measured |
| --- | --- | --- | --- | --- | --- | --- | --- |
| CCCN1C(CC(C)C)=N[S+](=O)([O-])c2cc(NC(=O)c3ccccc3C(F)(F)F)ccc21 [NCGC00531765-01] | 1.17e-05 | – | – | – | – | – | AC50 [1, 9]: 7.67e-06 M; AC50 [2, 10]: 7.52e-06 M; AC50 [3, 11]: 1.17e-05 M |
| CCCN1C(CC(C)C)=N[S+](=O)([O-])c2cc(N)ccc21 [NCGC00521151-01] | – | 2e-05 | 2e-06 | 3.99e-06 | – | – | – |
| CCCN1C(CC(C)C)=N[S+](=O)([O-])c2cc(NC(=O)c3ccccc3OC)ccc21 [NCGC00531762-01] | 2.52e-06 | – | – | – | – | – | AC50 [1, 9]: 1e-06 M; AC50 [2, 10]: 2e-06 M; AC50 [3, 11]: 1.12e-06 M |
| COc1ccc(-c2nc(C(C)C)nc3c2CCN(C(=O)Nc2ccccc2)CC3)cc1 [NCGC00479509-01] | 1.23e-05 | – | – | – | – | – | AC50 [1, 9]: 1.19e-05 M; AC50 [2, 10]: 1.61e-05 M; AC50 [3, 11]: 1.44e-05 M |
| N[S+](=O)([O-])c1cc2c(cc1C(F)(F)F)NCN[S+]2(=O)[O-] [NCGC00016401-08] | – | – | 2.24e-05 | 3.56e-06 | 3.85e-06 | 3.56e-06 | – |
| COc1ccc(-c2nc(C(C)C)nc3c2CCN(S(=O)(=O)c2cccc(C(F)(F)F)c2)CC3)cc1 [NCGC00479522-01] | 1.14e-05 | – | – | – | – | – | AC50 [1, 9]: 1.1e-05 M; AC50 [2, 10]: 1.28e-05 M; AC50 [3, 11]: 1.68e-05 M |
| CCCN1C(C)=N[S+](=O)([O-])c2cc(NC(=O)c3ccccc3)ccc21 [NCGC00522605-01] | – | 1e-05 | 2e-06 | 3.56e-07 | – | – | – |
| CCCN1C(CC(C)C)=N[S+](=O)([O-])c2cc(NC(=O)c3c(C)noc3C)ccc21 [NCGC00521866-01] | – | 1.78e-05 | 1e-05 | 2.52e-06 | – | 7.52e-06 | – |
| CC(C)CC1=N[S+](=O)([O-])c2cc(NC(=O)c3cccs3)ccc2N1C [NCGC00521057-01] | – | 1.85e-06 | 2.24e-07 | 1.89e-07 | – | 1e-06 | – |
| NS(=O)(=O)c1cc2c(cc1C(F)(F)F)NC(Cc1ccccc1)NS2(=O)=O (stereo not drawn) [NCGC00018194-08] | – | – | 1e-08 | 8.93e-06 | 1.26e-06 | – | – |
| CCCN1C(CC(C)C)=N[S+](=O)([O-])c2cc([N+](=O)[O-])ccc21 [NCGC00510308-01] | – | – | – | 2.52e-09 | 1.59e-05 | – | – |
| O=c1[nH]c(N2CCOCC2)nc2c1CCN(Cc1cc(Cl)ccc1F)CC2 [NCGC00440651-01] | 2.16e-06 | – | – | – | – | – | log AC50, mean ([4]; fifth value triple, c15, […]): -5.575; AC50 ([6]; Hill fit, 50% of maximum activity response, read-out: AC50): 2820 nM; AC50 ([6]; log10 of molar AC50 from Hill fit, read-out: Log AC50 (converted)): 2820 nM; Activity direction (Decrease / Inactive) [7]: Inactive; AC50 [8]: 2370 nM |
| O=c1[nH]c(N2CCOCC2)nc2c1CCN(Cc1ccc(Cl)cc1F)CC2 [NCGC00440653-01] | 2.16e-06 | – | – | – | – | – | log AC50, mean ([4]; fifth value triple, c15, […]): -5.475; Max Resp (signal direction of the dose response) ([6]; Decrease = decreasing P. berghei viability with dose, Increase = increasing signal, Inactive = no dose response): Inactive; Activity direction (Decrease / Inactive) [7]: Inactive; AC50 [8]: 3350 nM |
| CCCN1C(CC(C)C)=N[S+](=O)([O-])c2cc(NC(=O)c3ccc(-c4ccccc4)cc3)ccc21 [NCGC00521159-01] | – | 8.93e-06 | 7.1e-06 | – | 7.1e-06 | 8.93e-06 | – |
| CCCN1C(CC(C)C)=N[S+](=O)([O-])c2cc(NC(=O)c3ccc(F)c(F)c3)ccc21 [NCGC00531540-01] | – | 5.22e-06 | 7.96e-07 | 7.1e-07 | – | 3.99e-07 | – |
| CCCN1C(CC(C)C)=N[S+](=O)([O-])c2cc(N[S+](=O)([O-])c3cccs3)ccc21 [NCGC00521163-01] | – | 1.78e-05 | – | 1.12e-05 | 1.59e-05 | 8.93e-06 | – |
| CCCN1C(CC(C)C)=N[S+](=O)([O-])c2cc(NC(=O)c3ccc(OC)cc3)ccc21 [NCGC00531533-02] | – | 2.52e-06 | 1.47e-06 | 1e-06 | 1e-06 | – | – |
| CCCN1C(CC(C)C)=N[S+](=O)([O-])c2cc(NC(=O)c3cncs3)ccc21 [NCGC00521052-01] | – | 4.84e-06 | 6.58e-07 | – | 5.86e-06 | 1.72e-06 | – |
| O=C(Nc1ccc2c(c1)[S+](=O)([O-])N=C1CCCN12)c1cccs1 [NCGC00537660-01] | 2e-09 | – | – | – | – | – | – |
| CCCN1C(CC(C)C)=N[S+](=O)([O-])c2cc(N[S+](=O)([O-])c3ccc(F)cc3)ccc21 [NCGC00521879-01] | – | – | – | 6.32e-07 | – | – | – |
| NS(=O)(=O)c1cc2c(cc1Cl)NC(C1CC3C=CC1C3)NS2(=O)=O (stereo not drawn) [NCGC00015288-06] | – | – | – | 5.64e-07 | – | 7.1e-07 | – |
| CCCN1C(CC(C)C)=N[S+](=O)([O-])c2cc(NC(=O)c3ccc(-c4ccccc4)o3)ccc21 [NCGC00521160-01] | – | – | – | 5.02e-06 | 6.32e-06 | 3.17e-06 | – |
| CC(C)CC1=N[S+](=O)([O-])c2cc(NC(=O)c3cccs3)ccc2N1 [NCGC00532401-01] | 2.52e-09 | – | – | – | – | – | AC50 [1, 9]: 2.82e-07 M; AC50 [3, 11]: 7.1e-06 M |
| CCCN1C(CC(C)C)=N[S+](=O)([O-])c2cc(NC(=O)c3ccc(OC(F)(F)F)cc3)ccc21 [NCGC00531538-01] | – | 1.26e-06 | – | 1.78e-05 | – | 1.59e-06 | – |
| N[S+](=O)([O-])c1cc2c(cc1Cl)NCN[S+]2(=O)[O-] [NCGC00015508-23] | – | 7.1e-07 | 8.93e-07 | – | 5.64e-07 | 1.78e-07 | – |
| CCCN1C(CC(C)C)=N[S+](=O)([O-])c2cc(NC(=O)c3cnon3)ccc21 [NCGC00521034-01] | – | – | – | 1.59e-06 | 1e-05 | – | – |
| CN1C(CC2CCCCC2)=N[S+](=O)([O-])c2cc(NC(=O)c3ccc(F)s3)ccc21 [NCGC00651709-01] | 1.68e-05 | – | – | – | – | – | AC50 [1, 9]: 5.96e-06 M; AC50 [3, 11]: 5.31e-06 M |
| CCCN1C(CC(C)C)=N[S+](=O)([O-])c2cc(NC(=O)c3ccc(F)cc3)ccc21 [NCGC00521139-01] | – | 5.22e-07 | 3.56e-07 | – | 5.64e-07 | 4.74e-07 | – |
| N[S+](=O)([O-])c1cc2c(cc1Cl)NC(C(Cl)Cl)N[S+]2(=O)[O-] (stereo not drawn) [NCGC00018302-09] | – | – | – | 5.02e-06 | 1.42e-06 | 6.32e-07 | – |
| CCCN1C(CC(C)C)=N[S+](=O)([O-])c2cc(NC(=O)c3cc4ccccc4o3)ccc21 [NCGC00521880-01] | – | – | – | 1.34e-06 | 4.48e-07 | 3.99e-06 | – |
